Key:
[1] = tested on: velvetleaf; assay: Test Example 4: herbicidal effect by soil treatment (Table 19, symbol M); type: in vivo, velvetleaf (Abutilon theophrasti); conditions: 320 g/ha
Summary of the method: (§1)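 In this soil treatment, the formulated compound reached the seeds only through the soil: seeds were buried about 1.5 cm deep in sterilized diluvial soil, then the diluted emulsion was sprayed over the surface. After three weeks at 25° C. to 30° C. in a greenhouse, effects were graded on criteria from an earlier test.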

[2] = tested on: false cleavers; assay: Test Example 4: herbicidal effect by soil treatment (Table 19, symbol Q); type: in vivo, false cleavers (Galium spurium); conditions: 320 g/ha
Summary of the method: as §1

[3] = tested on: green foxtail; assay: Test Example 4: herbicidal effect by soil treatment (Table 19, symbol G); type: in vivo, green foxtail (Setaria viridis); conditions: 320 g/ha
Summary of the method: as §1

[4] = tested on: wild oat; assay: Test Example 4: herbicidal effect by soil treatment (Table 19, symbol I); type: in vivo, wild oat (Avena fatua); conditions: 320 g/ha
Summary of the method: as §1

[5] = tested on: persian speedwell; assay: Test Example 4: herbicidal effect by soil treatment (Table 19, symbol R); type: in vivo, Persian speedwell (Veronica persica); conditions: 320 g/ha
Summary of the method: as §1

[6] = tested on: oval-leafed pondweed; assay: Test Example 1: herbicidal activity, application before weed generation under submerged conditions (Table 16, symbol C); type: in vivo, oval-leafed pondweed (Monochoria vaginalis); conditions: 320 g/ha applied herbicide
Summary of the method: (§2)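 Alluvial soil was flooded to 4 cm depth, weed seeds were sown mixed and 2.5-leaf rice seedlings were transplanted. On sowing day, the compound's emulsion, diluted in water to a set dose, was applied to the water surface. Plants grew at 25–30 °C and were scored 0–5 after three weeks.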

[7] = tested on: barnyard grass; assay: Test Example 4: herbicidal effect by soil treatment (Table 19, symbol H); type: in vivo, barnyard grass (Echinochloa crus-galli); conditions: 320 g/ha
Summary of the method: as §1

[8] = tested on: windgrass; assay: Test Example 5: herbicidal effect by foliage application, plastic box (Table 20, symbol L); type: in vivo, windgrass (Apera spica-venti); conditions: foliage application, 320 g/ha, evaluated three weeks after application
Summary of the method: (§3)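 Plants were sown into sterilized diluvial soil under about 1.5 cm cover and kept in a greenhouse at 25° C. to 30° C. Fourteen days on, foliage received an even spray of the diluted emulsion. Herbicidal or crop effect was judged three weeks afterwards.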

[9] = tested on: windgrass; assay: Test Example 4: herbicidal effect by soil treatment (Table 19, symbol L); type: in vivo, windgrass (Apera spica-venti); conditions: 320 g/ha
Summary of the method: as §1

[10] = tested on: Italian ryegrass; assay: Test Example 5: herbicidal effect by foliage application, plastic box (Table 20, symbol K); type: in vivo, Italian ryegrass (Lolium multiflorum); conditions: foliage application, 320 g/ha, evaluated three weeks after application
Summary of the method: as §3

[11] = tested on: redroot pigweed; assay: Test Example 5: herbicidal effect by foliage application, plastic box (Table 20, symbol N); type: in vivo, redroot pigweed (Amaranthus retroflexus); conditions: foliage application, 320 g/ha, evaluated three weeks after application
Summary of the method: as §3

[12] = tested on: Chinese sprangletop; assay: Test Example 3: herbicidal effect by foliage application, Wagner pot (Table 18, symbol D); type: in vivo, chinese sprangletop (Leptochloa chinensis); conditions: 320 g/ha
Summary of the method: (§4)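 Plants were sown in alluvial soil held under 0.1–0.5 cm standing water and grown 14 days in a greenhouse at 25–30 °C. An emulsifiable formulation, water-diluted to the set dose, was then sprayed onto the foliage, and effects were scored three weeks later using previously defined criteria.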

[13] = tested on: chickweed; assay: Test Example 4: herbicidal effect by soil treatment (Table 19, symbol P); type: in vivo, common chickweed (Stellaria media); conditions: 320 g/ha
Summary of the method: as §1

[14] = tested on: lambsquarters; assay: Test Example 5: herbicidal effect by foliage application, plastic box (Table 20, symbol O); type: in vivo, lambsquarters (Chenopodium album); conditions: foliage application, 320 g/ha, evaluated three weeks after application
Summary of the method: as §3

[15] = tested on: wild oat; assay: Test Example 5: herbicidal effect by foliage application, plastic box (Table 20, symbol I); type: in vivo, wild oat (Avena fatua); conditions: foliage application, 320 g/ha, evaluated three weeks after application
Summary of the method: as §3

[16] = tested on: southern crabgrass; assay: Test Example 4: herbicidal effect by soil treatment (Table 19, symbol F); type: in vivo, southern crabgrass (Digitaria ciliaris); conditions: 320 g/ha
Summary of the method: as §1

[17] = tested on: southern crabgrass; assay: Test Example 5: herbicidal effect by foliage application, plastic box (Table 20, symbol F); type: in vivo, southern crabgrass (Digitaria ciliaris); conditions: foliage application, 320 g/ha, evaluated three weeks after application
Summary of the method: as §3

[18] = tested on: redroot pigweed; assay: Test Example 4: herbicidal effect by soil treatment (Table 19, symbol N); type: in vivo, redroot pigweed (Amaranthus retroflexus); conditions: 320 g/ha
Summary of the method: as §1

[19] = tested on: velvetleaf; assay: Test Example 5: herbicidal effect by foliage application, plastic box (Table 20, symbol M); type: in vivo, velvetleaf (Abutilon theophrasti); conditions: foliage application, 320 g/ha, evaluated three weeks after application
Summary of the method: as §3

[20] = tested on: blackgrass; assay: Test Example 5: herbicidal effect by foliage application, plastic box (Table 20, symbol J); type: in vivo, blackgrass (Alopecurus myosuroides); conditions: foliage application, 320 g/ha, evaluated three weeks after application
Summary of the method: as §3

[21] = tested on: persian speedwell; assay: Test Example 5: herbicidal effect by foliage application, plastic box (Table 20, symbol R); type: in vivo, Persian speedwell (Veronica persica); conditions: foliage application, 320 g/ha, evaluated three weeks after application
Summary of the method: as §3

[22] = tested on: late watergrass; assay: Test Example 1: herbicidal activity, application before weed generation under submerged conditions (Table 16, symbol A); type: in vivo, late watergrass (Echinochloa oryzicola); conditions: 320 g/ha applied herbicide
Summary of the method: as §2

[23] = tested on: lambsquarters; assay: Test Example 4: herbicidal effect by soil treatment (Table 19, symbol O); type: in vivo, lambsquarters (Chenopodium album); conditions: 320 g/ha
Summary of the method: as §1

[24] = tested on: barnyard grass; assay: Test Example 3: herbicidal effect by foliage application, Wagner pot (Table 18, symbol H); type: in vivo, barnyard grass (Echinochloa crus-galli); conditions: 320 g/ha
Summary of the method: as §4

[25] = tested on: Japanese bulrush; assay: Test Example 1: herbicidal activity, application before weed generation under submerged conditions (Table 16, symbol B); type: in vivo, Japanese bulrush (Schoenoplectus juncoides); conditions: 320 g/ha applied herbicide
Summary of the method: as §2

[26] = tested on: false cleavers; assay: Test Example 5: herbicidal effect by foliage application, plastic box (Table 20, symbol Q); type: in vivo, false cleavers (Galium spurium); conditions: foliage application, 320 g/ha, evaluated three weeks after application
Summary of the method: as §3

[27] = tested on: rice flat sedge; assay: Test Example 3: herbicidal effect by foliage application, Wagner pot (Table 18, symbol E); type: in vivo, rice flat sedge (Cyperus iria); conditions: 320 g/ha
Summary of the method: as §4

[28] = tested on: green foxtail; assay: Test Example 5: herbicidal effect by foliage application, plastic box (Table 20, symbol G); type: in vivo, green foxtail (Setaria viridis); conditions: foliage application, 320 g/ha, evaluated three weeks after application
Summary of the method: as §3

[29] = tested on: Italian ryegrass; assay: Test Example 4: herbicidal effect by soil treatment (Table 19, symbol K); type: in vivo, Italian ryegrass (Lolium multiflorum); conditions: 320 g/ha
Summary of the method: as §1

[30] = tested on: blackgrass; assay: Test Example 4: herbicidal effect by soil treatment (Table 19, symbol J); type: in vivo, blackgrass (Alopecurus myosuroides); conditions: 320 g/ha
Summary of the method: as §1

[31] = tested on: barnyard grass; assay: Test Example 5: herbicidal effect by foliage application, plastic box (Table 20, symbol H); type: in vivo, barnyard grass (Echinochloa crus-galli); conditions: foliage application, 320 g/ha, evaluated three weeks after application
Summary of the method: as §3

[32] = tested on: chickweed; assay: Test Example 5: herbicidal effect by foliage application, plastic box (Table 20, symbol P); type: in vivo, common chickweed (Stellaria media); conditions: foliage application, 320 g/ha, evaluated three weeks after application
Summary of the method: as §3

CCCC(=O)Oc1c(C)nn(C)c(=O)c1-c1c(-c2ccc(F)cc2OC)sc2ccc(Cl)cc12 [2-096]
herbicidal effect rating, M: velvetleaf [1]: 0 (Herbicidal rate of 5% or less (almost no effect)) | herbicidal effect rating, Q: false cleavers [2]: 0 (Herbicidal rate of 5% or less (almost no effect)) | herbicidal effect rating, G: green foxtail [3]: 3 (Herbicidal rate of 40% or more and less than 70%) | herbicidal effect rating, I: wild oat [4]: 0 (Herbicidal rate of 5% or less (almost no effect)) | herbicidal effect rating, R: persian speedwell [5]: 0 (Herbicidal rate of 5% or less (almost no effect)) | Herbicidal effect on C: oval-leafed pondweed (grade 0-5) [6]: 2 (Herbicidal rate of 20% or more and less than 40%) | herbicidal effect rating, H: barnyard grass [7]: 2 (Herbicidal rate of 20% or more and less than 40%) | herbicidal effect on L: windgrass [8]: 4 (Herbicidal rate of 70% or more and less than 90%) | herbicidal effect rating, L: windgrass [9]: 0 (Herbicidal rate of 5% or less (almost no effect)) | herbicidal effect on K: Italian ryegrass [10]: 0 (Herbicidal rate of 5% or less (almost no effect)) | herbicidal effect on N: redroot pigweed [11]: 3 (Herbicidal rate of 40% or more and less than 70%) | herbicidal effect on D (Chinese sprangletop), rating 0-5 [12]: 1 (Herbicidal rate of 5% or more and less than 20%) | herbicidal effect rating, P: chickweed [13]: 4 (Herbicidal rate of 70% or more and less than 90%) | herbicidal effect on O: lambsquarters [14]: 3 (Herbicidal rate of 40% or more and less than 70%) | herbicidal effect on I: wild oat [15]: 0 (Herbicidal rate of 5% or less (almost no effect)) | herbicidal effect rating, F: southern crabgrass [16]: 3 (Herbicidal rate of 40% or more and less than 70%) | herbicidal effect on F: southern crabgrass [17]: 3 (Herbicidal rate of 40% or more and less than 70%) | herbicidal effect rating, N: redroot pigweed [18]: 5 (Herbicidal rate of 90% or more (almost completely withered)) | herbicidal effect on M: velvetleaf [19]: 1 (Herbicidal rate of 5% or more and less than 20%) | herbicidal effect on J: blackgrass [20]: 4 (Herbicidal rate of 70% or more and less than 90%) | herbicidal effect on R: persian speedwell [21]: 3 (Herbicidal rate of 40% or more and less than 70%) | Herbicidal effect on A: late watergrass (grade 0-5) [22]: 1 (Herbicidal rate of 5% or more and less than 20%) | herbicidal effect rating, O: lambsquarters [23]: 3 (Herbicidal rate of 40% or more and less than 70%) | herbicidal effect on H (barnyard grass), rating 0-5 [24]: 3 (Herbicidal rate of 40% or more and less than 70%) | Herbicidal effect on B: Japanese bulrush (grade 0-5) [25]: 3 (Herbicidal rate of 40% or more and less than 70%) | herbicidal effect on Q: false cleavers [26]: 4 (Herbicidal rate of 70% or more and less than 90%) | herbicidal effect on E (rice flat sedge), rating 0-5 [27]: 3 (Herbicidal rate of 40% or more and less than 70%) | herbicidal effect on G: green foxtail [28]: 3 (Herbicidal rate of 40% or more and less than 70%) | herbicidal effect rating, K: Italian ryegrass [29]: 0 (Herbicidal rate of 5% or less (almost no effect)) | herbicidal effect rating, J: blackgrass [30]: 0 (Herbicidal rate of 5% or less (almost no effect)) | herbicidal effect on H: barnyard grass [31]: 4 (Herbicidal rate of 70% or more and less than 90%) | herbicidal effect on P: chickweed [32]: 5 (Herbicidal rate of 90% or more (almost completely withered))
